Reference: patent US20150258202A1, “ANTHOCYANIDIN COMPLEX FOR THE TREATMENT OF MULTIPLE MYELOMA” (priority 2012, published 2015)

Legend:
[1] = Solubility of delphinidin chloride in aqueous cyclodextrin solutions (complexing); format: physicochemical; settings: pure water, cyclodextrin concentration 0; stirred 30° C. 20 h in the dark, filtered 0.22 μm
Method: A reversed-phase HPLC method was used to determine the delphinidin chloride content in the delphinidin-containing compositions.
In this example, the complexing of delphinidin by various cyclodextrins and the solubility of the complex in aqueous solution are investigated.
Neutral aqueous solutions were prepared comprising 10% by weight of the respective cyclodextrin.
Glass flasks were filled with 5 ml each of aqueous cyclodextrin solution and pure water. An excess of delphinidin chloride was then added.
The suspensions were stirred at 30° C. for 20 h in the dark. The suspension was then filtered through a membrane filter of 0.22 μm pore size.

[2] = system: mouse myeloma cell line MOPC-315; assay: FACS analysis of dead cells stained with propidium iodide; format: cell-based; settings: summary of BLI measurement and FACS analysis
Text: 1. Test Line and Experimental Setup • In the in vitro experiments, the effect of the delphinidin+sulfobutyl ether β-cyclodextrin complex (delphinidin+SBEBCD below) and delphinidin on the mouse myeloma cell line MOPC-315 (ATTC catalog no. TIB-23) was investigated by BLI (=bioluminescence imaging) measurement and FACS (fluorescence activated cell sorting) analysis described below. The methods used (BLI measurement and FACS analysis) are known to those skilled in the art from patent and technical literature, for example, from the FACS-based patent DE 1815352 C1.

[3] = Stability trials in aqueous solution (0.9% NaCl, 37° C., delphinidin content by HPLC); format: physicochemical; settings: 0.9% NaCl solution, dark
Method: To determine the delphinidin chloride content in the delphinidin-containing solutions, a reversed-phase HPLC method was used similar to the one already described above. The following reagents were used in this case:
The solutions were prepared at room temperature and subsequently stored in the dark at 37° C. in closed vials.
The delphinidin content was determined after 1, 2, 3 and 4 h. The table below gives the content determined as a percentage of the starting concentration stated above.
The determination of the delphinidin content in the samples was calculated with the aid of the Agilent ChemStation software using the calibration with the external standard described.

With Oc1cc(O)c2cc(O)c(-c3cc(O)c(O)c(O)c3)[o+]c2c1.[Cl-] [Delphinidin chloride] the “Delphinidin chloride (solubility achievable)” value [1] was 70 µg/mL, the “Killing of myeloma cells in vitro” value [2] was “kill human myeloma cells in vitro” and the “Dose dependence of cell killing” value ([2]; higher doses) was “virtually all cells are killed at higher doses”. The “Delphinidin content as a percentage of the starting concentration” value (from here on “Delphinidin content as a percentage”) ([3]; 0 h) was 100%, the “Delphinidin content as a percentage” value ([3]; 1 h) was 8.3% and the “Delphinidin content as a percentage” value ([3]; 2 h) was 6.5%. The “Delphinidin content as a percentage” value ([3]; 3 h) was 5.6% and the “Delphinidin content as a percentage” value ([3]; 4 h) was 5.1%.
